Entries after “also recorded” stand apart in the source; their conditions may differ. Read-outs that look alike come from different tables or passages of the source.
Key:
[1] = system: TMZ sensitive (U251) cells; test: Colony forming assay, TMZ sensitive U251; type: cell-based, human
Description: (§1) Colony forming assays were carried out after cells were treated with TMZ alone, POH alone, and the TMZ-POH conjugate. […] Cancer Lett. 2011 Mar. 28; 302(2):100-8.

[2] = system: U87, A172 and U251 human glioma cells; test: MTT cytotoxicity assay on human malignant glioma cells; type: cell-based
Description: In vitro efficacy of the present composition can be determined using methods well known in the art. For example, the cytotoxicity of the present monoterpene (or sesquiterpene) and/or the therapeutic agents may be studied by MTT [3-(4,5-dimethylthiazol-2-yl)-2,5-diphenyl tetrazolium bromide] cytotoxicity assay. MTT assay is based on the principle of uptake of MTT, a tetrazolium salt, by metabolically active cells where it is metabolized into a blue colored formazon product, which can be read spectrometrically. J. of Immunological Methods 65: 55 63, 1983. The cytotoxicity of the present monoterpene (or sesquiterpene) derivative and/or the therapeutic agents may be studied by colony formation assay. Functional assays for inhibition of VEGF secretion and IL-8 secretion may be performed via ELISA. Cell cycle block by the present monoterpene (or sesquiterpene) derivative and/or the therapeutic agents may be studied by standard propidium iodide (PI) staining and flow cytometry. Invasion inhibition may be studied by Boyden chambers. In this assay a layer of reconstituted basement membrane, Matrigel, is coated onto chemotaxis filters and acts as a barrier to the migration of cells in the Boyden chambers. Only cells with invasive capacity can cross the Matrigel barrier. Other assays include, but are not limited to cell viability assays, apoptosis assays, and morphological assays.
Then U87, A172 and U251 cells were treated with dimethyl celecoxib bisPOH carbamate (POH-DMC) (e.g., synthesized by the method in Example 1), and the MTT cytotoxicity assays performed (FIG. 2).
Then TMZ-resistant glioma cell lines U87, A172 and U251 cells were treated with temozolomide POH carbamate (POH-TMZ) (e.g., synthesized by the method in Example 3).

[3] = system: tumor brain endothelial cells (TuBEC); test: MTT cytotoxicity assay, tumor brain endothelial cells; type: cell-based
Description: (§2) Cancer Lett. 2011 Mar. 28; 302(2):100-8.

[4] = system: cleaved PARP and cleaved caspases 3 and 4 in HUT78, HUT102 and MyLa cells; test: Western blot of apoptosis markers (cleaved PARP-1, cleaved caspases); type: cell-based, human
Description: (§3) 2. Material and methods 2.1. […] 2.2. […] 2.3. […] 2.4. […] 2.5.

[5] = system: CHOP, c-myc and cyclin D in HUT78, HUT102 and MyLa cells; test: Western blot of ER stress and proliferation markers; type: cell-based, human; settings: for lowest concentration triggering near-maximal CHOP induction: 72 hours
Description: as §3

[6] = system: TMZ resistant cells (U251TR); test: MTT cytotoxicity assay, U251TR
Description: (§4) MTT cytotoxicity assays were carried out after cells were treated with the TMZ-POH conjugate. The MTT cytotoxicity assays were carried out as described in Chen TC, et al. Green tea epigallocatechin gallate enhances therapeutic efficacy of temozolomide in orthotopic mouse glioblastoma models. Cancer Lett. 2011 Mar. 28; 302(2):100-8.

[7] = system: HUT78 cells; test: MTT cell viability assay, HUT78 (Example 15)
Description: Pharmacological agents—NEO212 was dissolved in DMSO at 100 mM. TMZ was purchased from Sigma Aldrich (St. Louis, Mo.) and dissolved in DMSO (Santa Cruz Biotechnology, Dallas, Tex.) to a concentration of 50 mM. POH was purchased from Sigma-Aldrich and diluted in DMSO to 100 mM. […] Stock solutions of all drugs were stored at −20° C. Staurosporine (STSP) was purchased from Selleck Chemicals (Houston, Tex.), stored at 4° C. protected from light, and dissolved in DMSO before use. Ascorbic acid (AA) and beta-mercaptoethanol (b-ME) (Sigma Aldrich) were prepared fresh before use. Crystalline AA was dissolved in phosphate-buffered saline (PBS) to 25 mM; b-ME was diluted in medium to 25 mM. […] Cell lines—Three different human CTLC cell lines were used. […] Both media also contained 100 U/mL penicillin and 0.1 mg/mL streptomycin. Penicillin, streptomycin, and RPMI (prepared with raw materials from Cellgro/MediaTech, Manassas, Va.) were provided by the Cell Culture Core lab of the USC/Norris Comprehensive Cancer Center. […] Cells were kept in a humidified incubator at 37° C. and a 5% CO2 atmosphere. FBS was obtained from Omega Scientific (Tarzana, Calif.) and from X&Y Cell Culture (Kansas City, Mo.). […] MTT assay—Methylthiazoletetrazolium (MTT) assays were performed as follows. Cells were seeded into 96-well plates in a volume of 50 μL per well at 3.0-5.0×10^5 cells/mL. An additional 50 μL of medium containing various concentrations of drug (or vehicle) was added and the cells were incubated for different lengths of time. This was followed by the addition of 10 μL thiazolyl-blue tetrazolium (i.e., MTT; Sigma Aldrich) from a stock solution of 5 mg/mL in phosphate-buffered saline (PBS). Cells were returned to the incubator for 4 hours. Thereafter, the reaction was stopped and the cells were lysed by the addition of 100 μL solubilization solution (10% sodium dodecyl sulfate in 0.01 M hydrochloric acid). The 96-well plate was left in the cell culture incubator over night for complete solubilization of the MTT crystals, and the optical density (OD) of each well was determined the next day in an ELISA plate reader at 560 nm. The background value (=OD of control wells containing medium without cells+MTT+solubilization solution) was subtracted from all measured values. In individual experiments, each treatment condition was set up in quadruplicate, and each experiment was repeated several times independently. […] Cell proliferation analysis—Cell proliferation was assessed by counting cells over time. Independent cell cultures were exposed to different concentrations of NEO212. At different times, aliquots of cells were removed, mixed with Trypan blue, and counted in a hemocytometer. Blue cells were considered dead, whereas unstained cells were counted as live cells. […] Fluorescence-activated cell sorting (FACS) analysis—Cells were seeded in 6-well tissue culture plates at 2×10^5 cells/mL, followed by drug treatment. After 72 hours, cells were collected, washed twice with PBS, transferred to a microcentrifuge tube, and suspended in 200 μL of 1× binding buffer solution, which was made fresh from 10x binding buffer (0.2 μm sterile-filtered 0.1 M HEPES, pH 7.4; 1.4 M NaCl; 25 mM CaCl2)). Then 1 μL of a 1 mg/mL 7-amino-actinomycin D (7-AAD) solution (Thermo Fisher Scientific, Waltham, Mass.) was added. After 20 minutes of incubation on ice, cell fluorescence was analyzed on a FACSAria Flow Cytometer (Becton Dickinson Biosciences Ltd., Franklin Lakes, N.J.).

[8] = system: HUT78 cells; test: FACS analysis of cell death with 7-AAD; type: cell-based, human; settings: 72 hours
Description: as §3

[9] = system: MyLa cells; test: MTT cell viability assay, MyLa (Example 15); type: cell-based, human
Description: as §3

[10] = system: HuT 78 cells; test: MTT assay on HuT 78 cells (Example 14); settings: HuT 78, 72 hours
Description: HuT 78 cells are cutaneous T lymphocytes derived from a patient with Sézary syndrome.
HuT 78 cells were treated in vitro with (i) temozolomide (50, 100, 250 μM), (ii) POH-TMZ conjugate (“NEO212”, 25, 50, 100 μM), (iii) NEO412 which is the triple conjugate of temozolomide (TMZ), perillyl alcohol (POH), and linoleic acid (25, 50, 100, 250 μM), or (iv) vehicle alone. Seventy-two hours after the addition of drugs or vehicle, cell viability was determined by standard MTT (methylthiazoletetrazolium) assay.

[11] = system: ER stress (CHOP) in TMZ sensitive and resistant U251 glioma cells; test: Western blot of ER stress (CHOP) in U251 glioma cells; type: cell-based, human; settings: 18 hr treatment
Description: TMZ sensitive and resistant glioma cells Western blots were performed after TMZ sensitive and resistant glioma cells were treated with the TMZ-POH conjugate for 18 hr. […] Activation of the proapoptic protein CHOP was shown at concentrations as low as 60 uM of TMZ-POH.

[12] = system: USC-02 glioma cancer stem cells; test: MTT cytotoxicity assay, USC-02; type: cell-based; settings: USC-02, MTT
Description: as §2

[13] = system: normal astrocytes; test: MTT cytotoxicity assay, normal astrocytes; settings: listed as TMZ-POH
Description: as §4

[14] = system: HUT102 cells; test: MTT cell viability assay, HUT102 (Example 15); type: cell-based, human
Description: as §3

[15] = system: HUT78 cells; test: Cell proliferation by Trypan blue exclusion counting, HUT78; type: cell-based, human; settings: HUT78, 1 μM
Description: as §3

[16] = Toxicity studies in mice; type: in vivo
Description: (§5) Compared to both of its individual components, TMZ and POH, NEO212 exerts substantially greater cytotoxic activity, potentially via involvement of the pro-apoptotic module of the ER stress response mechanism, although its alkylating activity might contribute as well. As a next step in NEO212's development, in vivo experiments in immunodeficient murine CTCL models should be performed. We have attempted such models, but tumor take with our CTCL cell lines was unacceptably low, not inconsistent with reported challenges of achieving consistent tumor growth with these and other CTCL cell lines in general^57-59 It is conceivable that serial passage of positive tumors in mice would yield more aggressive cells, and we are considering pursuing this approach.

[17] = system: USC-04 glioma cancer stem cells; test: MTT cytotoxicity assay, USC-04; type: cell-based; settings: USC-04, MTT
Description: as §2

[18] = system: TMZ resistant (U251TR) U251 cells; test: Colony forming assay, TMZ resistant U251TR; type: cell-based, human
Description: as §1

[19] = system: brain endothelial cells (BEC; confluent and subconfluent); test: MTT cytotoxicity assay, brain endothelial cells; type: cell-based
Description: as §2

[20] = system: HUT102 cells; test: Cell proliferation by Trypan blue exclusion counting, HUT102; type: cell-based, human; settings: HUT102, 1 μM
Description: as §3

[21] = system: MyLa cells; test: Cell proliferation by Trypan blue exclusion counting, MyLa; type: cell-based, human; settings: 1 μM
Description: as §3

[22] = system: TMZ sensitive cells (U251); test: MTT cytotoxicity assay, U251
Description: as §4

[23] = Toxicity studies in Beagle dogs; type: in vivo; settings: Beagle dogs (unpublished)
Description: as §5

## C=C(C)C1CC=C(COC(=O)NC(=O)c2ncn3c(=O)n(C)nnc23)CC1 (centres unmarked) [NEO212]
[1]; listed as POH-TMZ
  cytotoxicity in colony forming assay: substantially greater potency compared to POH alone
[1]; listed as TMZ-POH
  cytotoxicity in colony forming assay: demonstrated cytotoxicity
[2]
  cytotoxicity in MTT assay: substantially higher kill rates
[3]
  cytotoxicity in MTT assay: did not induce significant cytotoxicity
[4]; HUT78 and HUT102 cells
  concentration at which apoptosis markers emerged: 0.1 to 1.0 µM
[4]; MyLa cells
  concentration required for apoptosis markers: 30 µM
[4]; all three CTCL cell lines
  induction of apoptosis markers: appearance of cleaved PARP and cleaved (i.e., activated) caspases 3 and 4
[5]; HUT78 cells
  lowest concentration triggering near-maximal CHOP induction: 0.1 µM
[5]; HUT102 and MyLa cells
  expression levels of c-myc and cyclin D proteins: declined
[5]; HUT102 cells
  lowest concentration triggering near-maximal CHOP induction: 1.0 µM
[5]; MyLa cells, 96 hours
  concentration dependence of CHOP induction: gradual increase all the way up to 100 μM
[5]; all three CTCL cell lines
  induction of CHOP protein: prominent induction of CHOP protein
[6]
  cytotoxicity in MTT assay: demonstrated cytotoxicity
[7]; HUT78, 10 μM
  reduction of viability: over 50%
[7]; HUT78, 24 hours, as low as
  concentration of earliest effect on viability: 3 µM
[7]; HUT78, 48 hours
  IC50: < 3 µM
[7]; HUT78, 72 hours
  IC50: ~4 µM
[7]; HUT78 cells
  potency relative to that of TMZ: over 100 fold
[7]; read-out: IC50 (50% decrease in viability), HUT78, 24 hours
  IC50: 8 µM
[8]; HUT78, 1 μM
  cell death: 33%
[8]; HUT78, 30 μM
  cell death: 50%
[9]; 72 hours
  IC50: ~130 µM
[9]; 96 hours
  IC50: ~85 µM
[10]
  cytotoxic effect on MF cells in MTT assay: pronounced cytotoxic effect
[11]; as low as
  concentration at which activation of CHOP was shown: 60 µM
[11]; western blot
  induction of ER stress (ERS): induces ER stress
[12]
  IC50: 60 µM
[13]
  cytotoxicity in MTT assay: not towards normal astrocytes; also recorded: did not induce significant cytotoxicity
[14]; HUT102, 72 hours
  IC50: 9 µM
[14]; HUT102, 96 hours
  IC50: 3 µM
[15]
  proliferation-inhibitory effect: strongest effect
[16]
  tolerability: very well tolerated
[17]
  IC50: 150 µM
[18]; listed as POH-TMZ
  cytotoxicity in colony forming assay: substantially greater potency compared to POH alone
[18]; listed as TMZ-POH
  cytotoxicity in colony forming assay: demonstrated cytotoxicity
[19]; confluent BEC
  cytotoxicity in MTT assay: did not induce significant cytotoxicity
[19]; subconfluent BEC, high concentrations
  cytotoxicity in MTT assay: Mild to moderate cytotoxicity
[20]
  proliferation-inhibitory effect: slightly less pronounced activity
[21]
  proliferation-inhibitory effect: weaker activity
[22]
  cytotoxicity in MTT assay: demonstrated cytotoxicity
[23]
  tolerability: very well tolerated
